From PubChem BioAssay AID743417 (Broad Institute, 2014)
Results filed as inconclusive are left out. The source made the active and inactive calls.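 How the source made its calls: active means compounds lowering the luciferase signal with a fitted half-maximal dose at most twice their top valid dose (cut at about 30 µM in these data); inconclusive means flat fits with moderate signal loss, or poor fits; inactive means the rest.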

Each compound was assayed on Clone20 osteoblast Shn3 3'UTR firefly luciferase, 24 h (assay: Schnurri-3 3'UTR-luciferase signal suppressors – cell-based, Clone20 osteoblasts, luminescence, dry powder, set 2, dose response (AID 743417)).
Work on CC(C)C[C@H](N)c1nnc(S(=O)(=O)Cc2ccc(F)cc2)o1 yielded an AC50 of 9.02 µM.
O=C(c1cc2nc(-c3ccc(F)cc3)cc(C(F)(F)F)n2n1)N1CCCCC1c1cccnc1 (stereo unspecified) gave an AC50 of 2.37 µM.
In the case of C=C1CC(COc2cc(=O)oc3ccccc23)(c2ccccc2)OC1=O (stereo unspecified), the AC50 is reported as 3.93 µM.
CN(c1ccccc1)S(=O)(=O)c1cccc(NC(=O)CSc2nncs2)c1 gave an AC50 of 1.44 µM.
Compound CCCCN1CC(COCc2ccccc2)Oc2cccc(Oc3ccc(C(C)C)cc3)c2S1(=O)=O (stereo unspecified) has an AC50 of 5.03 µM.
Compound N=c1n(Cc2ccccc2)c2ccccc2n1CC(O)COc1ccc(Cl)cc1Cl (stereo unspecified) has an AC50 of 2.89 µM.
COc1ccc(C(NC(=O)c2cccnc2)c2cc(Cl)c3cccnc3c2O)cc1OC (stereo unspecified) showed an AC50 of 1.88 µM.
Compound COc1ccc(-n2ncc3c(N4CCCCC4)ncnc32)cc1 has an AC50 of 2.87 µM.
In the case of Cc1ccc(NC(=O)c2ccc(Cl)c(N3C(=O)C=CC3=O)c2)cc1, the AC50 is reported as 1.6 µM.
CCCCCCCNC(=O)C1(CC2CC(c3cccc(Br)c3)=NO2)CCNCC1 (stereo unspecified) showed an AC50 of 11.7 µM.
Cc1cc2c(cc(C(=O)N3CCC(C(=O)NC4CCCC4)CC3)n2Cc2c(F)cccc2Cl)o1 gave an AC50 of 4.81 µM.
With O=S(=O)(c1ccc(Cl)cc1)N1CCN(Cc2ccc(O)c3ncccc23)CC1 the AC50 was 3.01 µM.
COc1ccc(CC(N)c2csc(NC(=O)Nc3cccc(C(F)(F)F)c3)n2)cc1 (stereo unspecified) showed an AC50 of 8.4 µM.
In the case of COc1ccc(-n2nnnc2-c2cnc(N3CCCC3)nc2C(F)(F)F)cc1, the AC50 is reported as 4.75 µM.
Compound Cc1ccc(-c2nc3cccnc3o2)cc1NC(=O)COc1ccc(C(C)(C)C)cc1 has an AC50 of 10.8 µM.
Compound O=C(C(=Cc1ccccc1)CN1CCCCC1)c1ccccc1 has an AC50 of 3.18 µM.
In the case of Oc1c(C(Nc2ccccn2)c2ccccn2)ccc2cccnc12 (stereo unspecified), the AC50 is reported as 4.36 µM.
CCc1ccc(-n2c(O)c(C=NCCN(CC)CC)c(=O)[nH]c2=O)cc1 was tested, and the AC50 was > 70 µM (inactive).
With CCS(=O)(=O)c1ncc(Cl)c(C(=O)Nc2ccccc2OC)n1 the AC50 was 3.71 µM.
For Oc1cc(Nc2cccnc2)cc2cccnc12, the AC50 was 2.12 µM.
Work on COc1ccc(CC(N)c2csc(NC(=O)NC(c3ccccc3)c3ccccc3)n2)cc1 (stereo unspecified) yielded an AC50 of 6.4 µM.
For COc1ccc2c(c1)sc1nc(-c3ccccc3)cn12, the AC50 was 7.37 µM.
Compound N#Cc1ccc(NC(=O)Nc2ccc(Oc3ccc(NC(=O)Nc4ccc(C#N)cc4)cc3)cc2)cc1 has an AC50 of 2.68 µM.
COc1ccc(CCNc2cc(N3CCN(C(=O)c4ccccc4F)CC3)ccc2[N+](=O)[O-])cc1OC showed an AC50 of 1.26 µM.
Cc1ccc(CNc2nc(NCC3CC3)nc3ccsc23)c(C)c1 was tested, and the AC50 was 3.95 µM.
COc1ccc(-c2coc3c(C(=O)NCc4ccc(OC)c(OC)c4)cccc23)c(C)c1 gave an AC50 of 0.722 µM.
For Cc1nc2ccccn2c1C(=O)NC1CCCc2ccccc21 (stereo unspecified), the AC50 was 2.47 µM.
In the case of CCOC(=O)Oc1c(OC)cc(C(=O)O[C@@H]2C[C@@H]3CN4CCc5c([nH]c6cc(OC)ccc56)[C@H]4C[C@@H]3[C@H](C(=O)OC)[C@H]2OC)cc1OC, the AC50 is reported as 10.7 µM.
Cc1cccc(N2CCN(C(=S)Nc3ccc4nc(N5CCN(C)CC5)cc(C)c4c3)CC2)c1C was tested, and the AC50 was 5.45 µM.
CCCCN1CC(COCc2ccccc2)Oc2cccc(Oc3cc(C)c(C)c(C)c3)c2S1(=O)=O (stereo unspecified) gave an AC50 of 9.16 µM.
Compound CC(C)(C)C(=O)Cn1ncc(Br)c(Br)c1=O has an AC50 of 9.51 µM.
For C=CCOC(=O)C1=C(C)N=C2SCCC(=O)N2C1c1cccs1 (stereo unspecified), the AC50 was > 70 µM (inactive).
With COc1ccc(CS(=O)(=O)/C(Cl)=C(/Cl)C(=O)Nc2ccc(OC)nc2)cc1 the AC50 was < 0.26 µM.
COC(=O)[C@]1(C)CCC[C@@]2(C)C3CC[C@@]4(C)C[C@]3(CCC21)CC(=O)N4Cc1ccc(OC)cc1 (stereo partly specified) gave an AC50 of 8.16 µM.
In the case of CCC1CN2CCc3cc(OC)c(OC)cc3C2CC1CC1NCCc2c1[nH]c1ccc(O)cc21 (stereo unspecified), the AC50 is reported as < 0.26 µM.
In the case of COC(=O)C12OCC34C(CC5C(C)=C(O)C(=O)CC5(C)C3C(O)C1O)OC(=O)C(OC(=O)C=C(C)C)C24 (stereo unspecified), the AC50 is reported as < 0.26 µM.
Cc1cccc(C)c1NC(=O)c1nc(S(=O)(=O)Cc2ccccc2)ncc1Cl showed an AC50 of 4.33 µM.
For COc1ccccc1OCC(O)Cn1c(=N)n(Cc2ccccc2)c2ccccc21 (stereo unspecified), the AC50 was 4.01 µM.
For CC1CCCC(NC(=O)c2cccc(S(=O)(=O)N3CCN(c4ccccc4)CC3)c2)C1C (stereo unspecified), the AC50 was 3.14 µM.
CCC(C)NS(=O)(=O)c1ccc(S(=O)(=O)N2CCCC3(CCCCC3)C2)cc1 (stereo unspecified) showed an AC50 of 3.44 µM.
CCCc1nc2c(=O)n(C)c(=O)nc-2n(C)n1 was tested, and the AC50 was 2.17 µM.
For CC(C)(C)C(=O)NC(=S)NNC(=O)c1sc2ccccc2c1Cl, the AC50 was 19.1 µM.
O=C(Nc1ccccc1Cc1ccccc1)c1ccccc1NS(=O)(=O)c1ccc(Cl)s1 showed an AC50 of 8.18 µM.
In the case of CC(C)(C)c1ccc(-n2ncc3c2CCCC3NC(=O)C2(C(N)=O)CC2)cc1 (stereo unspecified), the AC50 is reported as 0.589 µM.
Cn1cccc1C(=O)NC(=O)COC(=O)c1ccc(S(C)(=O)=O)c([N+](=O)[O-])c1 was tested, and the AC50 was 15.1 µM.
For CN(c1cccc(NC(=O)CN(c2ccc(C34CC5CC(CC(C5)C3)C4)cc2)S(C)(=O)=O)c1)S(C)(=O)=O, the AC50 was 7.58 µM.
In the case of Cc1cc(=O)oc2c3c(cc(OCC(=O)Nc4ccc(CCO)cc4)c12)OC(C)(C)CC3, the AC50 is reported as > 70 µM (inactive).
In the case of Cc1[nH]nc2c1-c1nc3ccccc3nc1C(C)(C)C2, the AC50 is reported as 4.2 µM.
In the case of COc1ccccc1NC(=O)Cc1nn(C)c(=O)c2ccccc12, the AC50 is reported as 1.97 µM.
CC(C)(O)/C=C/C(=O)C(C)(O)C1C(O)CC2(C)C3CC=C4C(C=C(O)C(=O)C4(C)C)C3(C)C(=O)CC12C (stereo unspecified) was tested, and the AC50 was 1.83 µM.
Work on CC(=O)OCCNc1cc(Sc2nc3ccccc3[nH]2)c2nonc2c1[N+](=O)[O-] yielded an AC50 of 1.86 µM.
